In US20230119239A1, “OROMUCOSAL FILM COMPOSITIONS” (ReForm Therapeutics Ltd., priority 2021, published 2023):

Experiment: Ex vivo permeation of liraglutide solution through porcine sublingual mucosa, Franz diffusion cell
Format: in vitro ADME
Settings: liraglutide 3 mg/mL + Transcutol® HP (10% solution) compared with liraglutide solution alone; 120 minutes; receptor phosphate buffer pH 8.5; FIG. 4
Protocol: The solution of liraglutide, and solution of liraglutide and permeation enhancer was tested. […] Samples were taken at 0 and 120 minutes to determinate the presence of liraglutide in the receptor chamber. The concentration level of liraglutide was determined using HPLC/MS method.

permeation of liraglutide through sublingual mucosa ex vivo (in words): significantly increased permeation
SMILES: CCCCCCCCCCCCCCCC(=O)N[C@@H](CCC(=O)NCCCC[C@H](NC(=O)[C@H](C)NC(=O)[C@H](C)NC(=O)[C@H](CCC(N)=O)NC(=O)CNC(=O)[C@H](CCC(=O)O)NC(=O)[C@H](CC(C)C)NC(=O)[C@H](Cc1ccc(O)cc1)NC(=O)[C@H](CO)NC(=O)[C@H](CO)NC(=O)[C@@H](NC(=O)[C@H](CC(=O)O)NC(=O)[C@H](CO)NC(=O)[C@@H](NC(=O)[C@H](Cc1ccccc1)NC(=O)[C@@H](NC(=O)CNC(=O)[C@H](CCC(=O)O)NC(=O)[C@H](C)NC(=O)[C@@H](N)Cc1cnc[nH]1)[C@@H](C)O)[C@@H](C)O)C(C)C)C(=O)N[C@@H](CCC(=O)O)C(=O)N[C@@H](Cc1ccccc1)C(=O)N[C@H](C(=O)N[C@@H](C)C(=O)N[C@@H](Cc1c[nH]c2ccccc12)C(=O)N[C@@H](CC(C)C)C(=O)N[C@H](C(=O)N[C@@H](CCCNC(=N)N)C(=O)NCC(=O)N[C@@H](CCCNC(=N)N)C(=O)NCC(=O)O)C(C)C)[C@@H](C)CC)C(=O)O [liraglutide]
